From patent publication US11801209B2, “Cooling and flavor boosting compositions” (Firmenich SA, priority 2017, dated 2023)

system: expert panel of three subjects; assay: Sensory evaluation of toothpaste test formulations by an expert panel: intensity of mint flavor and of cooling effect; format: in vivo, human; conditions: test toothpaste formulation, summary of Table 8
Protocol: The potentiation may be determined by any method readily selected by one of ordinary skill in the art. In some aspects, the potentiation is determined using a sensory panel. In the aspects where the potentiation is determined using a sensory panel a subject may contact their oral cavity with a composition, and rate the perceived flavor strength and cooing strength of the composition.
In some aspects, the perceived flavor intensity may be rated from 0 to 5, wherein 0 is no perceived flavor intensity, 1 is a very low perceived flavor intensity, 2 is a low perceived flavor intensity, 3 is a moderate perceived flavor intensity, 4 is a high perceived flavor intensity, and 5 is a very high perceived flavor intensity.
In some aspects, the perceived cooling intensity may be rated from 0 to 5, wherein 0 is no perceived cooling intensity, 1 is a very low perceived cooling intensity, 2 is a low perceived cooling intensity, 3 is a moderate perceived cooling intensity, 4 is a high perceived cooling intensity, and 5 is a very high perceived […].
(§1) An expert panel of three subjects was asked to evaluate the intensity of the mint flavor and the intensity of the cooling effect of the test formulations. The subjects were asked to apply approximately 1 g of a test sample on to a toothbrush, and rinse the toothbrush under running water for 5 secs to moisten the paste and soften the bristles. The subjects then brushed their teeth with the applied test sample, taking care to minimize any contact with the subjects' gums. The subjects then expectorated the test sample, and rinsed their mouth with water. The subjects then ranked the intensity of the mint flavor and the intensity of the cooling effect of the test formulations. The subjects were asked to wait for 15 min between each test sample.
as §1, with “subjects” for “subjects was”

Compound | effect on perceived flavor intensity and perceived cooling intensity of the mint flavor
O=C(O)C1CCCCC1 [cyclohexanecarboxylic acid] | able to increase both the perceived flavor intensity and the perceived cooling intensity
Cc1noc(C)c1Cn1cc(N2C(=O)CN(Cc3cccc(O)c3)C2=O)cn1 [3-(1-((3,5-dimethylisoxazol-4-yl)methyl)-1H-pyrazol-4-yl)-1-(3-hydroxybenzyl)imidazolidine-2,4-dione] | able to increase both the perceived flavor intensity and the perceived cooling intensity
O=C(CCc1ccc(O)cc1)c1c(O)cc(O)cc1O [phloretin] | able to increase both the perceived flavor intensity and the perceived cooling intensity
CCCCC[C@@H]1C(=O)CC[C@@H]1CC(=O)OC [(+)-methyl(1R)-cis-3-oxo-2-pentyl-1-cyclopentaneacetate] | able to increase both the perceived flavor intensity and the perceived cooling intensity
CCCC(CCC)NC(=O)c1ccc2c(c1)OCO2 [n-(1-propylbutyl)-1,3-benzodioxole-5-carboxamide] | able to increase both the perceived flavor intensity and the perceived cooling intensity
COc1cc(/C=C/C(=O)O)ccc1O [ferulic acid] | able to increase both the perceived flavor intensity and the perceived cooling intensity
COC(C)=O [methyl acetate] | able to increase both the perceived flavor intensity and the perceived cooling intensity
